IC50 data for 28 compounds are collected here from patent US9062026B2, “Fused pyrimidines and substituted quinazolines as inhibitors of p97” (Cleave Biosciences, Inc., priority 2012, dated 2015).

The structures appear in SMILES notation. A value given as a limit tells only on which side of the number the result lay.

p97, sequence (P55072 whole entry): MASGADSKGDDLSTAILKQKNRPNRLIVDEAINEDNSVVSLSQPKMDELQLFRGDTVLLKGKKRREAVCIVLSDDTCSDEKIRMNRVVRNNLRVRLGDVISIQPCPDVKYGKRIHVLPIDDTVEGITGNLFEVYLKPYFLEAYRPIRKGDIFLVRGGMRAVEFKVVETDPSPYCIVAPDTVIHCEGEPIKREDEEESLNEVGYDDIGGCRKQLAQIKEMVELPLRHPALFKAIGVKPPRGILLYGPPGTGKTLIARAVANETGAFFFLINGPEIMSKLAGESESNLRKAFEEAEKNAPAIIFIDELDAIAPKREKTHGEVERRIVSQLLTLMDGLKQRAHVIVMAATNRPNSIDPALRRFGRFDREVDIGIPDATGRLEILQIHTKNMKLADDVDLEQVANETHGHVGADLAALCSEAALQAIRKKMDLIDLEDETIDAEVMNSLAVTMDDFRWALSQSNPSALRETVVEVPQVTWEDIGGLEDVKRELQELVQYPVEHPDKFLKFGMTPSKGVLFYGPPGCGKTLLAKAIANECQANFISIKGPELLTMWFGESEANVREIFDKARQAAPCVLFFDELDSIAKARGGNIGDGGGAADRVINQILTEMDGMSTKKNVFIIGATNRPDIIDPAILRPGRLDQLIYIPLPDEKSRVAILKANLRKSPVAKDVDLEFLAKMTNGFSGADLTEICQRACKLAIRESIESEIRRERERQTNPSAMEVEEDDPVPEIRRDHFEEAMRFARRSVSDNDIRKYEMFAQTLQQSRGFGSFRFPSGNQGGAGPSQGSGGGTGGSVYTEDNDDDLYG

One assay addresses p97 (Homo sapiens (Human), UniProt P55072). Briefly: P97 ATPase biochem assay (ADP Glo). It counts as biochemical. The conditions noted are these: 20 nM p97, 20 μM ATP, 37° C., 15 minutes; read-out: p97 biochem IC50. As for the experimental part:
The ATPase assay is performed according the following protocol: Purified enzyme (20 nM p97), substrate (20 μM ATP) and a dose titration of compounds are mixed in buffer (50 mM TRIS pH 7.5, 20 mM MgCl2, 0.02% TX-100, 1 mM DTT, 0.2% (v/v) glycerol) and incubated at 37° C. for 15 minutes. The reaction is terminated and the level of product generated is measured using the ADP Glo Assay Kit (Promega, Madison Wis.). Plotting product generated versus compound concentration and using a four-parameter fit model generates an IC50 value for each compounds.
Background: ADP-Glo first removes unused ATP, then detects ADP through luciferase.
Broadly, the IC50 is the midpoint of a concentration-inhibition curve. With `NCc1cc2ccccc2n1-c1nc2c(c(NCc3ccccc3)n1)CCCC2` [drawing 219], the IC50 is less than 2000 nM. Still for that read-out and setting: the figure for `COc1cccc2c(NCc3ccccc3)nc(CCC(C)C)nc12` is less than 10000 nM; for `COc1cccc2c(NCc3ccccc3)nc(C3NCc4ccccc43)nc12` (stereo not shown) it is less than 5000 nM; for `Cc1cc2ccccc2n1-c1nc(NCc2ccccc2)c2cccc(CN)c2n1` it is less than 2000 nM. On the same count and under the same terms, the figure for `COc1cccc2c(NCc3ccccc3)nc(CCc3ccccc3)nc12` is less than 25000 nM.

For the compound `CC(=O)N1CCc2c(nc(C3C(C)=Cc4ccccc43)nc2NCc2ccccc2)C1` (stereo not shown), the IC50 is less than 2000 nM.

For `COc1nc2ccccc2n1-c1nc(NCc2ccccc2)c2c(n1)C(=O)NCC2`, the IC50 is less than 5000 nM. On the same count and under the same terms, with `NC(=O)NCc1cc2ccccc2n1-c1nc2c(c(NCc3ccccc3)n1)CCCC2` [drawing 231] the figure was less than 2000 nM; with `COc1cccc2c(NCc3ccccc3)nc(-c3c(C)oc4ccccc34)nc12`, less than 2000 nM; with `CN(C)Cc1cccc2c(NCc3ccccc3)nc(-n3c(N)nc4ccccc43)nc12`, less than 25000 nM. On the same count and under the same terms, the figure for `COc1cccc2c(NCc3ccccc3)nc(C3CNc4ccccc43)nc12` (stereo not shown) is less than 2000 nM; for `COc1cccc2c(NCc3ccccc3)nc(-n3c(NC(C)=O)nc4ccccc43)nc12` it is less than 5000 nM. The same measure, in the same setting: with `COc1cccc2c(NCc3nccs3)nc(-n3c(N)nc4ccccc43)nc12` the figure was less than 25000 nM.

Regarding `OCc1cc2ccccc2n1-c1nc2c(c(NCc3ccccc3)n1)CCCC2` [drawing 227], the IC50 was less than 2000 nM. Still for that read-out and setting: with `COc1cccc2c(NCc3ccccc3)nc(N3C(=O)Cc4ccccc43)nc12` the figure was less than 2000 nM; with `COc1cccc2c(NCc3ccccc3)nc(-n3c(/C=C/S(C)(=O)=O)cc4ccccc43)nc12` [drawing 244], less than 2000 nM. Same read-out and setting: the figure for `COC(=O)NCc1cc2ccccc2n1-c1nc2c(c(NCc3ccccc3)n1)CCCC2` [drawing 232] is less than 2000 nM; for `COCCOc1cccc2c(NCc3ccccc3)nc(C3C(ON)=Nc4ccccc43)nc12` (stereo not shown) it is less than 2000 nM.

For `COc1cccc2c(NCc3ccco3)nc(-n3c(N)nc4ccccc43)nc12`, the IC50 is less than 5000 nM. The same measure, in the same setting: the figure for `CS(=O)(=O)N1CCc2c(nc(-n3c(CN)cc4ccccc43)nc2NCc2ccccc2)C1` is less than 2000 nM; for `CCC1=NC(C)=C(C)C1c1nc(NCc2ccccc2)c2cccc(OC)c2n1` (stereo not shown) it is less than 25000 nM.

Staying with this assay, now noted: read-out: p97 IC50.
As for `COc1cccc2c(NCc3ccccc3)nc(-c3c(C)[nH]c4ccccc34)nc12` [N-benzyl-8-methoxy-2-(2-methyl-1H-indol-3-yl)quinazolin-4-amine], the IC50 is less than 100 nM. Regarding `COCCOc1cccc2c(NCc3ccccc3)nc(-n3c(CO)nc4ccccc43)nc12` [{1-[4-(benzylamino)-8-(2-methoxyethoxy)quinazolin-2-yl]-1H-1,3-benzodiazol-2-yl}methanol], the IC50 is less than 300 nM. As to `Clc1cc2ccccc2n1-c1nc2c(c(NCc3ccccc3)n1)CNCC2` [N-benzyl-2-(2-chloro-1H-indol-1-yl)-5H,6H,7H,8H-pyrido[4,3-d]pyrimidin-4-amine], the IC50 is less than 300 nM. The same measure, in the same setting: the figure for `COCCOc1cccc2c(NCc3ccccc3)nc(-n3c(OC)cc4ccccc43)nc12` [N-benzyl-2-(2-methoxy-1H-indol-1-yl)-8-(2-methoxyethoxy)quinazolin-4-amine] is less than 100 nM. The same measure, in the same setting: the figure for `COc1cccc2c(NCc3ccccc3)nc(-n3c(/C=C(/C#N)C(N)=O)cc4ccccc43)nc12` [(2Z)-3-{1-[4-(benzylamino)-8-methoxyquinazolin-2-yl]-1H-indol-2-yl}-2-cyanoprop-2-enamide] is less than 100 nM; for `COCCOc1cccc2c(NCc3ccccc3)nc(-n3c(CN(C)C)cc4ccccc43)nc12` [N-benzyl-2-{2-[(dimethylamino)methyl]-1H-indol-1-yl}-8-(2-methoxyethoxy)quinazolin-4-amine] it is less than 100 nM.

With `COCCOc1cccc2c(NCc3ccccc3)nc(-n3c(CNC(N)=O)cc4ccccc43)nc12` [({1-[4-(benzylamino)-8-(2-methoxyethoxy)quinazolin-2-yl]-1H-indol-2-yl}methyl)urea], the IC50 was less than 100 nM.
